Test results as given in patent publication US10669268B2, “Bicyclic derivatives” (Hoffmann-La Roche Inc., priority 2012, dated 2020).

Target: ATX (human His-tagged) (Homo sapiens (Human), UniProt Q13822)
Test: Human ATX enzyme inhibition assay (fluorescence quenching, MR121 substrate)
Assay type: biochemical
Conditions: 30 nM ATX, 1 μM MR121 substrate, 30° C., pH 8.0
In short: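 Fluorescence-quenching assay using MR121 substrate at 1 μM final, incubated 15 min at 30 °C. Buffer was 50 mM Tris-HCl pH 8.0 with 140 mM NaCl, 5 mM KCl, 1 mM CaCl2, 1 mM MgCl2 and 0.01% Triton X-100.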

Row | IC50 [nM] | Compound
1 | 14 | O=C(OCc1ccc(OC(F)(F)F)cc1)N1C[C@@H]2CN(C(=O)c3ccc4[nH]nnc4c3Cl)C[C@H]2C1 [Example 1.55, (3aS,6aS)-5-(4-chloro-1H-benzotriazole-5-carbonyl)-hexahydro-pyrrolo[3,4-c]pyrrole-2-carboxylic acid 4-trifluoromethoxy-benzyl ester]
2 | 5620 | O=C(OCC12CC3CC(CC(C3)C1)C2)N1C[C@@H]2CN(C(=O)c3ccc4[nH]nnc4c3)C[C@@H]2C1 [Example 4.18, (3aS,6aR)-5-(1H-benzotriazole-5-carbonyl)-hexahydro-pyrrolo[3,4-c]pyrrole-2-carboxylic acid adamantan-1-ylmethyl ester]
3 | 5.2 | O=C(OCc1ccc(OC(F)(F)F)cc1)N1C[C@@H]2CN(C(=O)[C@@H]3CCc4[nH]nnc4C3)C[C@H]2C1 [Example 4.58, (3aS,6aS)-5-((R)-4,5,6,7-tetrahydro-1H-benzotriazole-5-carbonyl)-hexahydro-pyrrolo[3,4-c]pyrrole-2-carboxylic acid 4-trifluoromethoxy-benzyl ester]
4 | 49 | O=C(/C=C/c1cccc(OC(F)(F)F)c1)N1C[C@H]2CCN(C(=O)c3ccc4[nH]nnc4c3)CC[C@H]2C1 [Example 15.20]
5 | 14 | O=C(OCc1ccc(OC(F)(F)F)cc1)N1C[C@@H]2CN(C(=O)N3CCc4[nH]nnc4C3)C[C@H]2C1 [Example 4.54, (3aS,6aS)-5-(1,4,6,7-tetrahydro-[1,2,3]triazolo[4,5-c]pyridine-5-carbonyl)-hexahydro-pyrrolo[3,4-c]pyrrole-2-carboxylic acid 4-trifluoromethoxy-benzyl ester]
6 | 35 | O=C(CCc1cc(Cl)cc(Cl)c1)N1C[C@@H]2CN(C(=O)c3ccc4[nH]nnc4c3)C[C@@H]2C1 [Example 1.01, 1-((3aR,6aS)-5-(1H-benzo[d][1,2,3]triazole-5-carbonyl)hexahydropyrrolo[3,4-c]pyrrol-2(1H)-yl)-3-(3,5-dichlorophenyl)propan-1-one]
7 | 54 | CN(Cc1cnn[nH]1)C(=O)N1C[C@H]2CCN(C(=O)/C=C/c3ccc(OC(F)(F)F)c(F)c3)CC[C@H]2C1 [Example 15.61, (3aR,8aS)-N-((1H-1,2,3-triazol-5-yl)methyl)-6-((E)-3-(3-fluoro-4-(trifluoromethoxy)phenyl)-acryloyl)-N-methyloctahydro-pyrrolo[3,4-d]azepine-2(1H)-carboxamide]
8 | 5 | Cc1cc(OCC(=O)N2C[C@@H]3CN(C(=O)c4ccc5[nH]nnc5c4)C[C@H]3C2)c(C(C)C)cc1Cl [Example 15.64]
9 | 3400 | CC(C)(Cc1cccc(Cl)c1)C(=O)N1CC[C@@H]2CN(C(=O)NCc3cnn[nH]3)C[C@@H]2CC1 [Example 9.08]
10 | 116 | O=C(/C=C/c1cccc(OC(F)(F)F)c1)N1C[C@H]2CCN(C(=O)c3ccc4[nH]nnc4c3)C[C@@H]2C1 [Example 15.73]
11 | 4 | O=C(OCc1cc(Cl)cc(OC(F)(F)F)c1)N1C[C@@H]2CN(C(=O)c3ccc4[nH]nnc4c3)C[C@@H]2C1 [Example 4.27, (3aS,6aR)-5-(1H-benzotriazole-5-carbonyl)-hexahydro-pyrrolo[3,4-c]pyrrole-2-carboxylic acid 3-chloro-5-trifluoromethoxy-benzyl ester]
12 | 10 | O=C(COc1ccc(C(F)(F)F)cc1Cl)N1CC[C@@H]2CN(C(=O)c3ccc4[nH]nnc4c3)C[C@@H]2CC1 [Example 1.38, 1-((3aR,8aS)-2-(1H-benzo[d][1,2,3]triazole-5-carbonyl)octahydropyrrolo[3,4-d]azepin-6(7H)-yl)-2-(2-chloro-4-(trifluoromethyl)phenoxy)ethanone]
13 | 10 | O=C(c1ccc2[nH]nnc2c1)N1C[C@H]2CN(C(=O)[C@H]3CC[C@H](c4ccc(Cl)cc4)CC3)C[C@@H]2C1 [Example 19.17, [(3aR,6aR)-5-(1H-benzotriazole-5-carbonyl)-hexahydro-pyrrolo[3,4-c]pyrrol-2-yl]-[trans-4-(4-chloro-phenyl)-cyclohexyl]-methanone]
14 | 2 | O=C(/C=C/c1cc(Cl)cc(Cl)c1)N1CC[C@@H]2CN(C(=O)c3ccc4[nH]nnc4c3)C[C@@H]2CC1 [Example 15.27]
15 | 12 | O=C(COc1ccc(OC(F)(F)F)cc1Cl)N1C[C@@H]2CN(C(=O)c3ccc4[nH]nnc4c3)C[C@H]2C1 [Example 15.91]
16 | 156 | O=C(/C=C/c1ccccc1)N1CC[C@@H]2CN(C(=O)c3ccc4[nH]nnc4c3)C[C@@H]2CC1 [Example 15.15]
17 | 15 | O=C(/C=C/c1cccc(OC(F)(F)F)c1)N1CC[C@@H]2CN(C(=O)c3ccc4[nH]nnc4c3)C[C@@H]2CC1 [Example 15.72]

Row | IC50 [nM] | Compound
18 | 4 | O=C(OCc1cc(Cl)cc(Cl)c1)N1C[C@H]2CCN(C(=O)c3ccc4[nH]nnc4c3)C[C@@H]2C1 (relative stereo) [Example 4.10, trans-3,5-dichlorobenzyl 5-(1H-benzo[d][1,2,3]triazole-5-carbonyl)hexahydro-1H-pyrrolo[3,4-c]pyridine-2(3H)-carboxylate]
19 | 5 | O=C(OCc1cc(Cl)cc(Cl)c1)N1C[C@@H]2CN(C(=O)c3ccc4[nH]c(=O)oc4c3)C[C@@H]2C1 [Example 2.01, (3aR,6aS)-3,5-dichlorobenzyl 5-(2-oxo-2,3-dihydrobenzo[d]oxazole-6-carbonyl)hexahydropyrrolo[3,4-c]pyrrole-2(1H)-carboxylate]
20 | 103 | O=C(COc1ccccc1C(F)(F)F)N1C[C@@H]2CN(C(=O)c3ccc4[nH]nnc4c3)C[C@H]2C1 [Example 15.87]
21 | 179 | N#Cc1ccc(/C=C/C(=O)N2CC[C@@H]3CN(Cc4ccc5[nH]nnc5c4)C[C@@H]3CC2)cc1 [Example 6.05]
22 | 16 | COc1cc(Cl)cc(/C=C/C(=O)N2C[C@@H]3CN(C(=O)c4ccc5[nH]nnc5c4)C[C@H]3C2)c1 [Example 15.49]
23 | 47 | O=C(CCc1ccc(OC(F)(F)F)cc1)N1CC[C@@H]2CN(C(=O)c3ccc4[nH]nnc4c3)C[C@H]2C1 (relative stereo) [Example 17.15, 1-[trans-2-(1H-benzotriazole-5-carbonyl)-octahydro-pyrrolo[3,4-c]pyridin-5-yl]-3-(4-trifluoromethoxy-phenyl)-propan-1-one]
24 | 328 | N#Cc1ccc(/C=C/C(=O)N2C[C@H]3CCN(C(=O)c4ccc5[nH]nnc5c4)C[C@@H]3C2)cc1 (single isomer, unassigned) [Example 15.33]
25 | 51 | O=C(OCc1cc(F)cc(C(F)(F)F)c1)N1C[C@@H]2CN(C(=O)c3ccc4[nH]nnc4c3)C[C@@H]2C1 [Example 4.26, (3aS,6aR)-5-(1H-benzotriazole-5-carbonyl)-hexahydro-pyrrolo[3,4-c]pyrrole-2-carboxylic acid 3-fluoro-5-trifluoromethyl-benzyl ester]
26 | 478 | O=C1N[C@@H]2CCN(C(=O)N3C[C@H]4CN(C(=O)CCc5ccc(OC(F)(F)F)cc5)C[C@@H]4C3)C[C@H]2O1 [Example 15.55]
27 | 6 | CC(C)c1cc(Cl)ccc1OCC(=O)N1C[C@@H]2CN(C(=O)c3ccc4[nH]nnc4c3)C[C@H]2C1 [Example 19.10, 1-[(3aS,6aS)-5-(1H-benzotriazole-5-carbonyl)-hexahydro-pyrrolo[3,4-c]pyrrol-2-yl]-2-(4-chloro-2-isopropyl-phenoxy)-ethanone]
28 | 5 | O=C(CCc1ccc(OC(F)(F)F)cc1F)N1C[C@@H]2CN(C(=O)[C@@H]3CCc4[nH]nnc4C3)C[C@H]2C1 [Example 19.26, 1-[(3aR,6aR)-5-[(5R)-4,5,6,7-tetrahydro-1H-benzotriazole-5-carbonyl]-1,3,3a,4,6,6a-hexahydropyrrolo[3,4-c]pyrrol-2-yl]-3-[2-fluoro-4-(trifluoromethoxy)phenyl]propan-1-one]
29 | 11 | O=C(CCc1ccc(C(F)(F)F)cc1)N1C[C@@H]2CN(C(=O)c3ccc4[nH]nnc4c3)C[C@H]2C1 [Example 15.59]
30 | 8 | O=C(/C=C/c1ccc(OC(F)(F)F)cc1)N1CC[C@@H]2CN(C(=O)C3CCc4[nH]nnc4C3)C[C@@H]2CC1 (stereo partly drawn) [Example 1, (E)-1-[(3aS,8aR)-2-(4,5,6,7-Tetrahydro-1H-benzotriazole-5-carbonyl)-octahydro-pyrrolo[3,4-d]azepin-6-yl]-3-(4-trifluoromethoxy-phenyl)-prop-2-en-1-one]
31 | 96 | O=C(/C=C/c1cc(F)cc(C(F)(F)F)c1)N1C[C@@H]2CN(C(=O)c3ccc4[nH]nnc4c3)C[C@@H]2C1 [Example 15.02]
32 | 503 | O=C(OCc1cc(Cl)cc(Cl)c1)N1C[C@@H]2CN(C(=O)c3ccc4[nH]cnc4c3)C[C@@H]2C1 [Example 1.08, (3aR,6aS)-3,5-dichlorobenzyl 5-(1H-benzo[d]imidazole-5-carbonyl)hexahydropyrrolo[3,4-c]pyrrole-2(1H)-carboxylate]
33 | 255 | O=C(OCc1cc(Cl)cc(Cl)c1)N1C[C@@H]2CN(C(=O)c3ccc4[nH]c5ccccc5c4c3)C[C@@H]2C1 [Example 1.06, (3aR,6aS)-3,5-dichlorobenzyl 5-(9H-carbazole-3-carbonyl)hexahydropyrrolo[3,4-c]pyrrole-2(1H)-carboxylate]
34 | 74 | N#Cc1cc(OC(F)(F)F)ccc1OCC(=O)N1C[C@@H]2CN(C(=O)c3ccc4[nH]nnc4c3)C[C@H]2C1 [Example 15.96]

Row | Compound | IC50 [nM]
35 | O=C(OCc1cc(Cl)cc(Cl)c1)N1C[C@H]2CCN(C(=O)c3ccc4[nH]nnc4c3)C[C@@H]2C1 (relative stereo) [Example 12B, trans-3,5-dichlorobenzyl 5-(1H-benzo[d][1,2,3]triazole-5-carbonyl)-hexahydro-lH-pyrrolo[3,4-c]pyridine-2(3H)-carboxylate] | 5
